From PubChem BioAssay (NCI)
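These data come from cells grown in 96-well plates and exposed to compound for 48 hours at five concentrations. GI50 is the concentration that inhibits growth by half. TGI: total growth inhibition.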

How the values were obtained:
Assay in all cases: inhibition of tumour cell growth, NCI panel, 48 h
[1] = tested on: NCI-H460 lung
[2] = tested on: MOLT-4 leukemia
[3] = tested on: SNB-19 CNS
[4] = tested on: SF-295 CNS
[5] = tested on: A549 NSCLC
[6] = tested on: HL-60(TB) leukemia
[7] = tested on: A498 renal
[8] = tested on: MCF7 breast
[9] = tested on: MDA-MB-231 breast
[10] = tested on: T-47D breast

Compound	TGI [1]	TGI [2]	TGI [3]	TGI [4]	TGI [5]	TGI [6]	TGI [7]	GI50 [1]	GI50 [8]	TGI [8]	GI50 [9]	TGI [9]	GI50 [3]	GI50 [4]	GI50 [10]	TGI [10]	GI50 [5]	GI50 [7]
CCc1cccc(C(C)C)c1N1C(=O)C(=O)C(c2nc3ccccc3s2)C(=O)C1=O	> 50 µM	42.7 µM	> 50 µM	> 50 µM	> 50 µM	30.9 µM	> 50 µM											
Cc1cc(N(CCNc2ccnc3cc(Cl)ccc23)Cc2ccco2)nc(Cl)n1	3.6 µM		3.74 µM	3 µM	3.42 µM		4.21 µM	1910 nM	1650 nM	3.32 µM	1680 nM	3.24 µM	1.91 µM	1510 nM	1.52 µM	3.58 µM	1850 nM	1870 nM
CN(C)c1ccc(Nc2cc(-c3cccc(OC(F)(F)F)c3)nc3ccc(N4CCCC4)cc23)cc1	3.66 µM		13.7 µM	3.57 µM	3.22 µM		10.6 µM	1920 nM	1860 nM	4.61 µM	1760 nM	3.23 µM	3.32 µM	1830 nM			1700 nM	2470 nM
COc1cc(OC)c(C2CC=Cc3c(OC)cc(OC)c(OC)c32)cc1OC (stereo not given)	> 100 µM	> 100 µM		> 100 µM	> 100 µM	> 100 µM	> 100 µM											
CCCCCCCCCCCCCP(=O)(O)OCC	> 100 µM		> 100 µM	> 100 µM	> 100 µM	> 100 µM	> 100 µM											
NCCCNCCCCN(CCCN)/[N+]([O-])=N\O	> 100 µM	> 100 µM	> 100 µM	> 100 µM	> 100 µM	> 100 µM												
Cc1c(COc2cc(OCc3cccc(C#N)c3)c(CN3C[C@H](O)C[C@@H]3C(=O)O)cc2Cl)cccc1-c1ccc2c(c1)OCCO2	29 µM		29 µM	22.6 µM	55.3 µM		33.3 µM	14000 nM	4660 nM	19.3 µM	13800 nM	29.6 µM	15.6 µM	10700 nM	19.8 µM	47 µM	22100 nM	18700 nM
Cc1cc(C)nc(NS(=O)(=O)c2ccc(Nc3c4ccc(Cl)cc4nc4c(C(=O)Nc5ccc(S(N)(=O)=O)cc5)cccc34)cc2)n1	60.8 µM	39.7 µM	93.9 µM	36.9 µM			32.6 µM											
O=C1C2C3C=CC(C2C(=O)N1COP(=O)(O)O)C1C2C(=O)N(COP(=O)(O)O)C(=O)C2C31 (stereo not given)	> 59.5 µM	> 100 µM	> 100 µM	> 100 µM	> 100 µM	29.9 µM	> 100 µM											
Clc1ccc(C2SCc3nc4ccccc4n32)cc1Cl (stereo not given)	28.1 µM	> 100 µM	22.4 µM	24.2 µM	32.6 µM	40.7 µM												
C=C(Br)N(CC)CC	> 100 µM	> 100 µM	> 100 µM	> 100 µM	> 100 µM	> 100 µM	> 100 µM											
S=c1cc(S)sc2c1c(=S)sc1nc3ccccn3c(=S)c12	92.1 µM	> 100 µM	> 100 µM	> 100 µM	> 100 µM	97.3 µM	> 100 µM											
O=C(Cn1ccnc1[N+](=O)[O-])c1ccc(F)cc1	> 100 µM	> 100 µM	> 100 µM	> 100 µM	> 100 µM	> 100 µM	> 100 µM											
Fc1ccccc1C1CC(c2ccc3ccccc3c2)=Nc2ccccc2S1 (stereo not given)	> 100 µM	> 100 µM	> 100 µM	> 100 µM	> 100 µM	> 100 µM	> 100 µM											
CCC(=O)c1c(NOC2OC(COC(C)=O)C(OC(C)=O)C(OC(C)=O)C2OC(C)=O)nc(OC)n(C)c1=O (stereo not given)	> 100 µM	> 100 µM	> 100 µM	> 100 µM	> 100 µM													
Cc1ccc(S(=O)(=O)OCC23CCC(CC2)C2CC23)cc1 (stereo not given)	> 100 µM	> 100 µM	> 100 µM	> 100 µM	> 100 µM	39.1 µM	> 100 µM											
O=C(CC1(O)C(=O)Nc2c(Cl)cc(Cl)cc21)c1cccc2ccccc12 (stereo not given)	31.1 µM	66.9 µM	27.9 µM	29.2 µM	29.8 µM	26.5 µM	37.3 µM											
COc1cc(COC(=O)N(CC(=O)O)c2ccccc2)c([N+](=O)[O-])cc1OC	> 100 µM	> 100 µM	> 100 µM	> 100 µM	> 100 µM	> 100 µM	> 100 µM			> 100 µM						> 100 µM		
